Reference: patent US9995734B2, “Human T cell line assay for evaluating the immunologic identity of glatiramer acetate preparations” (Mylan Inc., priority 2013, dated 2018)
Several values for one entry are separate records, joined by “and”; a condition that tells them apart may be missing. Equal values may be shown once.

System: Donor 1 COP T-Cell Lines
Assay: Multiplex bead cytokine assay (FlowCytoMix), Donor 1 COP T-cell lines
Format: cell-based, human
Conditions: MBP control antigen, 24 hours after Day 56 restimulation
How it was run: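 Supernatant from donor 1 COP T-cell lines cultured with autologous EBV-transformed B-LCL was sampled mostly 18–24 h after adding antigen (1, 3 or 10 μg/mL GMA or COP; no-antigen and MBP controls). Cytokines were quantified simultaneously with anti-cytokine antibody beads, detected by PE-conjugated antibody fluorescence at 585 nm.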

## FFKNIVTPRTPPPSQGK [MBP]
222-1C5
  IFN-γ: 64 pg/mL
  IL-2: 0 pg/mL
  IL-5: 0 pg/mL
  IL-10: 0 pg/mL
  IL-13: 82 pg/mL
  IL-22: 36 pg/mL
  TNF-α: 9 pg/mL
222-2B8
  IFN-γ: 0 pg/mL
  IL-2: 0 pg/mL
  IL-5: 0 pg/mL
  IL-10: 0 pg/mL
  IL-13: 26.77 pg/mL
  IL-22: 20.62 pg/mL
  TNF-α: 0 pg/mL
222-2E1
  IFN-γ: 20.69 pg/mL
  IL-2: 42.43 pg/mL
  IL-5: 0 pg/mL
  IL-10: 2.28 pg/mL and 2.3 pg/mL
  IL-13: 51.1 pg/mL
  IL-22: 107.54 pg/mL
  TNF-α: 13.51 pg/mL
222-B11 (so in the source)
  IFN-γ: 0 pg/mL
  IL-2: 0 pg/mL
  IL-5: 0 pg/mL
  IL-10: 0 pg/mL
  IL-13: 0.83 pg/mL
  IL-22: 0 pg/mL
  TNF-α: 0 pg/mL
